Data reported in ChEMBL document CHEMBL4330185, “Computer-Assisted Discovery and Structural Optimization of a Novel Retinoid X Receptor Agonist Chemotype” (ACS Med Chem Lett, 2019).
Active and inactive are the calls of the source. No cut-off for these calls is given here.

Tests used:
Format in all cases: cell-based
[1] = target: T1, Retinoic acid receptor RXR-alpha (Homo sapiens, UniProt P19793); test: Agonist activity at human Gal4-DBD fused RXRalpha LBD expressed in HEK293T cells after 12 to 14 hrs by luciferase reporter gene assay
T1 sequence (P19793 whole entry): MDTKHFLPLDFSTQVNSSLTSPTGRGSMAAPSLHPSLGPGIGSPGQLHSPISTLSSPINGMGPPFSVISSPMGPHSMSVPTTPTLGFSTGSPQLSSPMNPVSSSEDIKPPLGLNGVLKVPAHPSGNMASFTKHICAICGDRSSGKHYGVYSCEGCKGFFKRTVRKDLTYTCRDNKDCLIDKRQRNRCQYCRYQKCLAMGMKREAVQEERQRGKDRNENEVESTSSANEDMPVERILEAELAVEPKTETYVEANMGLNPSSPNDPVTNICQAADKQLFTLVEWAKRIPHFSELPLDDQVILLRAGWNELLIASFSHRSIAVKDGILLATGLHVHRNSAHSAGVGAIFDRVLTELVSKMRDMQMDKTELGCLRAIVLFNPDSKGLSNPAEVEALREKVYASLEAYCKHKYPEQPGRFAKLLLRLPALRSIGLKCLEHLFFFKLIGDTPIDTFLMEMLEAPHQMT

[2] = target: T2, Retinoic acid receptor RXR-beta (Homo sapiens, UniProt P28702); test: Agonist activity at human Gal4-DBD fused RXRbeta LBD expressed in HEK293T cells after 12 to 14 hrs by luciferase reporter gene assay
T2 sequence (P28702 whole entry): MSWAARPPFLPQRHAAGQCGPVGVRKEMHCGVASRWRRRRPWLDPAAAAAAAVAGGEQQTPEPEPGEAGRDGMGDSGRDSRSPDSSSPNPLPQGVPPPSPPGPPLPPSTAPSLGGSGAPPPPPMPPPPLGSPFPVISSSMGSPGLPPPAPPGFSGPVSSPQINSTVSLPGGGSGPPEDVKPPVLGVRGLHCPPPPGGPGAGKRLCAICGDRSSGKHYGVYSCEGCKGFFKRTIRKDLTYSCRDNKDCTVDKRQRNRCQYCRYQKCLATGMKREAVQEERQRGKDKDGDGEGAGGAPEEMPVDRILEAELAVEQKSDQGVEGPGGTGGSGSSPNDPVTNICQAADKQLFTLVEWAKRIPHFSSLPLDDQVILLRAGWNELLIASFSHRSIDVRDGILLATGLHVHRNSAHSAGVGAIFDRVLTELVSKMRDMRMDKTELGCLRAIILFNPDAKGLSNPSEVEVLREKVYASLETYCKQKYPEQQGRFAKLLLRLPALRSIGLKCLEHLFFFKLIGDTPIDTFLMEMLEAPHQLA

[3] = target: T3, Retinoic acid receptor RXR-gamma (Homo sapiens, UniProt P48443); test: Agonist activity at human Gal4-DBD fused RXRgamma LBD expressed in HEK293T cells after 12 to 14 hrs by luciferase reporter gene assay
T3 sequence (P48443 whole entry): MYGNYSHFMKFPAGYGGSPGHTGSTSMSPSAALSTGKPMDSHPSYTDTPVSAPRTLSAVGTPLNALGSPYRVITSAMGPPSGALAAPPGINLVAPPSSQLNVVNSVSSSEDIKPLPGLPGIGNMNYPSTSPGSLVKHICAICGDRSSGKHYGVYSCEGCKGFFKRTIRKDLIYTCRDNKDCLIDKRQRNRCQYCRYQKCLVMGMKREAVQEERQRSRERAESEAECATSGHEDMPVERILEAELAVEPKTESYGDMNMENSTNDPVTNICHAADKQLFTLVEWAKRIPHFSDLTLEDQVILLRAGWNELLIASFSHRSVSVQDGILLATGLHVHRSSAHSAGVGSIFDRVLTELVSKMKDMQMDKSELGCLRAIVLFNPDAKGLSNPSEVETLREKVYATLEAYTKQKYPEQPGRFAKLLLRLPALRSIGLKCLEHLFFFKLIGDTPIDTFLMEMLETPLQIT

[4] = target: T4, Retinoic acid receptor RXR-alpha (Homo sapiens) (UniProt P19793); test: Agonist activity at human Gal4-DBD fused RXRalpha LBD expressed in HEK293T cells after 12 to 14 hrs by luciferase reporter gene assay relative to bexarotene
T4 sequence (whole entry): T1 sequence (P19793 whole entry)

[5] = target: T5, Retinoic acid receptor RXR-beta (Homo sapiens) (UniProt P28702); test: Agonist activity at human Gal4-DBD fused RXRbeta LBD expressed in HEK293T cells after 12 to 14 hrs by luciferase reporter gene assay relative to bexarotene
T5 sequence (whole entry): T2 sequence (P28702 whole entry)

[6] = target: T6, Retinoic acid receptor RXR-gamma (Homo sapiens) (UniProt P48443); test: Agonist activity at human Gal4-DBD fused RXRgamma LBD expressed in HEK293T cells at 30 uM after 12 to 14 hrs by luciferase reporter gene assay
T6 sequence (whole entry): T3 sequence (P48443 whole entry)

[7] = target: T6, Retinoic acid receptor RXR-gamma (Homo sapiens); test: Agonist activity at human Gal4-DBD fused RXRgamma LBD expressed in HEK293T cells after 12 to 14 hrs by luciferase reporter gene assay relative to bexarotene
[8] = target: T4, Retinoic acid receptor RXR-alpha (Homo sapiens); test: Agonist activity at human Gal4-DBD fused RXRalpha LBD expressed in HEK293T cells at 10 uM after 12 to 14 hrs by luciferase reporter gene assay

Cc1ccc(OCc2ccc(C(=O)O)cc2)c(-c2ccccc2)c1
EC50 ([1]; read-out: EC50): > 30 µM
EC50 ([2]; read-out: EC50): > 30 µM
EC50 [3]: Nd(Toxic)

O=C(O)c1ccc(COc2ccc(I)cc2)cc1
EC50 ([1]; read-out: EC50): 24 µM
EC50 ([2]; read-out: EC50): 29 µM
EC50 ([3]; read-out: EC50): > 30 µM
Emax [4]: 19%
Emax [5]: 25%

CC(C)(C)c1ccc(OCc2ccc(C(=O)O)cc2)c(-c2ccccc2)c1
EC50 ([1]; read-out: EC50): > 30 µM
EC50 ([2]; read-out: EC50): > 30 µM
EC50 ([3]; read-out: EC50): > 30 µM

CC(C)c1ccc(OCc2ccc(C(=O)O)cc2)cc1
EC50 ([1]; read-out: EC50): 16 µM
EC50 ([2]; read-out: EC50): 16 µM
Emax [4]: 11%
Emax [5]: 9.5%
Activity [6]: inactive

O=C(O)c1ccc(COc2ccccc2C(F)(F)F)cc1
EC50 ([1]; read-out: EC50): 1.1 µM
EC50 ([2]; read-out: EC50): 2.1 µM
EC50 ([3]; read-out: EC50): 10 µM
Emax [4]: 22%
Emax [5]: 22%
Emax [7]: 52%

O=C(O)Cc1ccc(COc2ccc3c(c2)CCC3)cc1
EC50 ([1]; read-out: EC50): 13 µM
EC50 ([2]; read-out: EC50): 18 µM
EC50 ([3]; read-out: EC50): 22 µM
Emax [4]: 47%
Emax [5]: 9.9%
Emax [7]: 8.8%

O=C(O)CCc1ccc(COc2ccc3c(c2)CCC3)cc1
EC50 ([1]; read-out: EC50): 6.7 µM
EC50 ([2]; read-out: EC50): 10 µM
EC50 ([3]; read-out: EC50): 21 µM
Emax [4]: 28%
Emax [5]: 29%
Emax [7]: 19%

O=C(O)c1ccc(COc2cc3c(cc2-c2ccccc2)CCC3)cc1
EC50 ([1]; read-out: EC50): > 30 µM
EC50 ([2]; read-out: EC50): > 30 µM
EC50 ([3]; read-out: EC50): > 30 µM

O=C(O)c1ccc(COc2ccc(Br)cc2)cc1
EC50 ([1]; read-out: EC50): 40 µM
EC50 ([2]; read-out: EC50): 48 µM
EC50 ([3]; read-out: EC50): > 30 µM
Emax [4]: 21%
Emax [5]: 36%

O=C(O)c1ccc(COc2ccccc2OC(F)(F)F)cc1
EC50 ([1]; read-out: EC50): 1.1 µM
EC50 ([2]; read-out: EC50): 1.9 µM
EC50 ([3]; read-out: EC50): 4.2 µM
Emax [4]: 26%
Emax [5]: 18%
Emax [7]: 25%

O=C(O)c1ccccc1COc1ccc2c(c1)CCC2
EC50 ([1]; read-out: EC50): > 30 µM
EC50 ([2]; read-out: EC50): > 30 µM
EC50 ([3]; read-out: EC50): > 30 µM

O=C(O)c1ccc(COc2ccccc2)cc1
EC50 ([1]; read-out: EC50): > 30 µM
EC50 ([2]; read-out: EC50): > 30 µM
EC50 ([3]; read-out: EC50): > 30 µM

CC(C)(C)c1ccc(OCc2ccc(C(=O)O)cc2)c(Cl)c1
EC50 ([1]; read-out: EC50): 4.2 µM
EC50 ([2]; read-out: EC50): 5.3 µM
EC50 ([3]; read-out: EC50): 4 µM
Emax [4]: 37%
Emax [5]: 36%
Emax [7]: 14%

COc1ccccc1OCc1ccc(C(=O)O)cc1
EC50 ([1]; read-out: EC50): 29 µM
EC50 ([2]; read-out: EC50): > 30 µM
EC50 ([3]; read-out: EC50): > 30 µM
Emax [4]: 21%

O=C(O)c1ccc(COc2ccc(Cl)cc2)cc1
EC50 ([1]; read-out: EC50): > 30 µM
EC50 ([2]; read-out: EC50): > 30 µM
EC50 ([3]; read-out: EC50): > 30 µM

O=C(O)c1ccc(COc2ccccc2F)cc1
EC50 ([1]; read-out: EC50): > 30 µM
EC50 ([2]; read-out: EC50): > 30 µM
EC50 ([3]; read-out: EC50): > 30 µM

O=C(O)c1ccc(CNc2ccc3c(c2)CCC3)cc1
EC50 ([1]; read-out: EC50): > 30 µM
EC50 ([2]; read-out: EC50): > 30 µM
EC50 ([3]; read-out: EC50): > 30 µM

CCc1ccc(OCc2ccc(C(=O)O)cc2)cc1
EC50 ([1]; read-out: EC50): 28 µM
EC50 ([2]; read-out: EC50): 35 µM
Emax [4]: 11%
Emax [5]: 7.4%
Activity [6]: inactive

O=C(O)c1ccc(COc2ccc(C(F)(F)F)cc2C(F)(F)F)cc1
EC50 ([1]; read-out: EC50): 6 µM
EC50 ([2]; read-out: EC50): 4.3 µM
EC50 ([3]; read-out: EC50): 11 µM
Emax [4]: 118%
Emax [5]: 66%
Emax [7]: 49%

CC(C)(C)c1ccc(OCc2ccc(C(=O)O)cc2)cc1
Activity [8]: Active
EC50 ([1]; read-out: EC50): 7.8 µM
EC50 ([2]; read-out: EC50): 8.9 µM
EC50 ([3]; read-out: EC50): > 30 µM
Emax [4]: 16%
Emax [5]: 15%

O=C(O)c1ccc(OCc2ccc3c(c2)CCC3)cc1
EC50 ([1]; read-out: EC50): > 30 µM
EC50 ([2]; read-out: EC50): 21 µM
EC50 ([3]; read-out: EC50): > 30 µM
Emax [5]: 25%

O=C(O)c1ccc(OCc2cccc(Cl)c2)cc1
EC50 ([1]; read-out: EC50): 27 µM
EC50 ([2]; read-out: EC50): 28 µM
EC50 ([3]; read-out: EC50): 29 µM
Emax [4]: 27%
Emax [5]: 24%
Emax [7]: 29%

O=C(O)c1ccc(COc2ccccc2Cl)cc1
EC50 ([1]; read-out: EC50): 9.9 µM
EC50 ([2]; read-out: EC50): 8.3 µM
EC50 ([3]; read-out: EC50): > 30 µM
Emax [4]: 58%
Emax [5]: 31%

CC(C)(C)c1ccccc1OCc1ccc(C(=O)O)cc1
EC50 ([1]; read-out: EC50): 0.16 µM
EC50 ([2]; read-out: EC50): 0.37 µM
EC50 ([3]; read-out: EC50): 1.1 µM
Emax [4]: 11%
Emax [5]: 12%
Emax [7]: 21%

Cc1ccccc1OCc1ccc(C(=O)O)cc1
EC50 ([1]; read-out: EC50): 5 µM
EC50 ([2]; read-out: EC50): 8.6 µM
EC50 ([3]; read-out: EC50): 19 µM
Emax [4]: 24%
Emax [5]: 27%
Emax [7]: 19%

O=C(O)c1ccc(COc2cccc(Cl)c2)cc1
EC50 ([1]; read-out: EC50): 17 µM
EC50 ([2]; read-out: EC50): 20 µM
EC50 ([3]; read-out: EC50): 44 µM
Emax [4]: 54%
Emax [5]: 26%
Emax [7]: 9.3%

CC(C)(C)c1ccc(OCc2ccc(C(=O)O)cc2)c(C(C)(C)C)c1
EC50 [1]: Nd(Toxic)
EC50 [2]: Nd(Toxic)
EC50 [3]: Nd(Toxic)

O=C(O)c1ccc(OCc2ccccc2-c2ccccc2)cc1
EC50 ([1]; read-out: EC50): > 30 µM
EC50 ([2]; read-out: EC50): > 30 µM
EC50 [3]: Nd(Toxic)

O=C(O)CCCc1ccc(COc2ccc3c(c2)CCC3)cc1
EC50 [1]: Nd(Toxic)
EC50 [2]: Nd(Toxic)
EC50 [3]: Nd(Toxic)

CN(Cc1ccc(C(=O)O)cc1)c1ccc2c(c1)CCC2
EC50 ([1]; read-out: EC50): 10 µM
EC50 ([2]; read-out: EC50): 9.9 µM
EC50 ([3]; read-out: EC50): 30 µM
Emax [4]: 22%
Emax [5]: 15%
Emax [7]: 8.5%
